Laboratory results published in ChEMBL document CHEMBL5625226, “Synthesis, computational and experimental pharmacological studies for (thio)ether-triazine 5-HT6R ligands with noticeable action on AChE/BChE and chalcogen-dependent intrinsic activity in search for new class of drugs against Alzheimer's disease” (Eur J Med Chem, 2023).

Legend:
Acetylcholinesterase = Acetylcholinesterase (Electrophorus electricus, UniProt O42275)
Description: Inhibition of electric eel AChE using acetylthiocholine iodide as substrate preincubated with compounds for 20 mins followed by substrate addition and measured after 5 mins by Ellman's method

HepG2 = experiment: cells; conditions: Homo sapiens, HepG2, 1 h
Description: Neuroprotective activity against H202 induced oxidative stress in human HepG2 cells measured after 1 hr by DCFH-DA staining based analysis

SH-SY5Y = experiment: cells; conditions: Homo sapiens, 1 h
Description: Neuroprotective activity against H202 induced oxidative stress in human SH-SY5Y cells measured after 1 hr by DCFH-DA staining based analysis

Cholinesterase = Cholinesterase (Equus caballus, UniProt P81908)
Description: Inhibition of equine serum BChE using butyrylthiocholine iodide as substrate preincubated for 20 mins followed by substrate addition and measured after 5 mins by Ellman's method

[1] = molecular target: T1, 5-hydroxytryptamine receptor 6 (Homo sapiens, UniProt P50406); experiment: biochemical
[2] = molecular target: 5-hydroxytryptamine receptor 2A (Homo sapiens, UniProt P28223); experiment: biochemical
[3] = molecular target: 5-hydroxytryptamine receptor 7 (Homo sapiens, UniProt P34969); experiment: biochemical
D(2) dopamine receptor = D(2) dopamine receptor (Homo sapiens, UniProt P14416); experiment: biochemical
[4] = molecular target: T1, 5-hydroxytryptamine receptor 6; conditions: 1321N1, filed as antagonist, dose 10.0 mM, time 30.0 min
cells = conditions: Rattus norvegicus, Whole blood cell, 0.05 h
Description: Antiplatelet activity against rat whole blood assessed as inhibition of collagen induced platelet aggregation measured after 3 mins

D(2) dopamine receptor, sequence (P14416 whole entry): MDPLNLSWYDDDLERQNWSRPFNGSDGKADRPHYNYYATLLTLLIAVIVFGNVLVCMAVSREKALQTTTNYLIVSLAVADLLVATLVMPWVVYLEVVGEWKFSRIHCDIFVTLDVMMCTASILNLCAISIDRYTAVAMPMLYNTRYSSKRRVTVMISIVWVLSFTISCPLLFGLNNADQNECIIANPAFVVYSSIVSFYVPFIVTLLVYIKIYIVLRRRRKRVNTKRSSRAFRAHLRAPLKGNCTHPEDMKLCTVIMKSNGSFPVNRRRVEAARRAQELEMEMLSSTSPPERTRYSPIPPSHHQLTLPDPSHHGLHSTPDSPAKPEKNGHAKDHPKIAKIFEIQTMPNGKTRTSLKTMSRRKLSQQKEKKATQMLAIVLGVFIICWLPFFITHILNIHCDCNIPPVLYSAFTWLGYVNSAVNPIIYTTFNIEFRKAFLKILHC
5-hydroxytryptamine receptor 2A, sequence (P28223 whole entry): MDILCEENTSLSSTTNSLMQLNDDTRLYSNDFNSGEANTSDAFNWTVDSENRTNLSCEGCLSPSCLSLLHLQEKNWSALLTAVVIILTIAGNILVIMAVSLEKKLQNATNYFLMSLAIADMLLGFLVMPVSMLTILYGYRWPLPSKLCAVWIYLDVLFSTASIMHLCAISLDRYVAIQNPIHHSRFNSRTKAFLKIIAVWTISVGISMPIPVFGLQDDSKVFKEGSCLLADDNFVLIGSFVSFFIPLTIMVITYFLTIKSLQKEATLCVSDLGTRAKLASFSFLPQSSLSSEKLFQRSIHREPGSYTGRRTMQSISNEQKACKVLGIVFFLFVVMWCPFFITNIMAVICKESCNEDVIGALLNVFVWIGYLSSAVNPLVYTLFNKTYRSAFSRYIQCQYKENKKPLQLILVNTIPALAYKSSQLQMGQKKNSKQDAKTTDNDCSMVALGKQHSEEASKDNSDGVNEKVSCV
Cholinesterase, sequence (P81908 whole entry): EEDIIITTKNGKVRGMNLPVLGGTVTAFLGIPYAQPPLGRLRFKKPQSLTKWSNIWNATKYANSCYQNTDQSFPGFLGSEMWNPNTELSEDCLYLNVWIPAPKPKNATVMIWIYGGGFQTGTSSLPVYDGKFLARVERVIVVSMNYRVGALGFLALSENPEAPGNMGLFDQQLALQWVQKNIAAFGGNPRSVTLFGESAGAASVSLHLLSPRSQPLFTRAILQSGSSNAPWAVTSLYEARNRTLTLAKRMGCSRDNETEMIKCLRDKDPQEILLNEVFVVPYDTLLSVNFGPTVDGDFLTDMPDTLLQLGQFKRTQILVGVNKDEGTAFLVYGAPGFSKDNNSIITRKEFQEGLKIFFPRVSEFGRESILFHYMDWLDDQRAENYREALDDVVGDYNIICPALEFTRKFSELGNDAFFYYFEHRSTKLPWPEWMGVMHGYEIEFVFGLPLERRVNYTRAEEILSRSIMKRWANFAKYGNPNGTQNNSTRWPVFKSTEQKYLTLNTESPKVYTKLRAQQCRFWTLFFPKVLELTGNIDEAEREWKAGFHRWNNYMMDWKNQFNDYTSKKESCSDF
Acetylcholinesterase, sequence (O42275 whole entry): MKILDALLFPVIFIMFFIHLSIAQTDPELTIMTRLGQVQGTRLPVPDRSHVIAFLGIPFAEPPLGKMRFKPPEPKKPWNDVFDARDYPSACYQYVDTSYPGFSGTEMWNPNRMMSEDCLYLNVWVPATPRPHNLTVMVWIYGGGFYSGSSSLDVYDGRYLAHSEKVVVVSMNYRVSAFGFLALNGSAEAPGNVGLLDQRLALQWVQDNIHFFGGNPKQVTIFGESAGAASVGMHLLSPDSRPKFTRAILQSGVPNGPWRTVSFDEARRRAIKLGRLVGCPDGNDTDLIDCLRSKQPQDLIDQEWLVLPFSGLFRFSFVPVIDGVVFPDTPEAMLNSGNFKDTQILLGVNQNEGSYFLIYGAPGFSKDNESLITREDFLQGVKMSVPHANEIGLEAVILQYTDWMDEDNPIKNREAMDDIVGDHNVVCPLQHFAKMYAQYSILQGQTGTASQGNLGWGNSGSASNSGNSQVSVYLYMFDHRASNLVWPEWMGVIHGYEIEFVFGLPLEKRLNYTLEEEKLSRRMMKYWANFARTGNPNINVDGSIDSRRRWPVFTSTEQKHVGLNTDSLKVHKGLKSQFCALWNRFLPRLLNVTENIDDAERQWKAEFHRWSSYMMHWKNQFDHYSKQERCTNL
5-hydroxytryptamine receptor 7, sequence (P34969 whole entry): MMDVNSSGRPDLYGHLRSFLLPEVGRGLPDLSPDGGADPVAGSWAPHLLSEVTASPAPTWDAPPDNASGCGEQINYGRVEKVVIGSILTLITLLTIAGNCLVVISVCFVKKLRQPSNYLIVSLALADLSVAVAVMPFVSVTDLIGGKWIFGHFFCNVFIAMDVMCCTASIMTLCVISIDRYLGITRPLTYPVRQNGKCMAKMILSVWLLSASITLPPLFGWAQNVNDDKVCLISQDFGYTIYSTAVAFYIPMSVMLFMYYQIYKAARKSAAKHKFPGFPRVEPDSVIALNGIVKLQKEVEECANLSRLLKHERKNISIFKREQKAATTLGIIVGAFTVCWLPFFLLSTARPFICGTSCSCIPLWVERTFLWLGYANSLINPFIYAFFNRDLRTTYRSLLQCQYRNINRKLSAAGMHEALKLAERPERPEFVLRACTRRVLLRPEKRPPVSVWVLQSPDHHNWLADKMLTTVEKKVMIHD
T1 sequence (P50406 whole entry): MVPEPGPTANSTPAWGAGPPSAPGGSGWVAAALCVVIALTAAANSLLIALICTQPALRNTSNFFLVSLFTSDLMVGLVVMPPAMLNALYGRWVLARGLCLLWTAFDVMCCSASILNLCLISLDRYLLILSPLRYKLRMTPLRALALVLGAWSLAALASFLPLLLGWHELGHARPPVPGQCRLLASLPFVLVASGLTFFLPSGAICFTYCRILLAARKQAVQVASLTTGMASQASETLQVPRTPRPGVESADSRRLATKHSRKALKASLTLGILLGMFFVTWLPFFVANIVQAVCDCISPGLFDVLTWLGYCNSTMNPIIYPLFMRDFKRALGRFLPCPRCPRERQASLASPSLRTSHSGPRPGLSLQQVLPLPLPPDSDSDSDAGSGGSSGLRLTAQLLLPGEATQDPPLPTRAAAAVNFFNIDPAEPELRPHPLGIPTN

CC(Oc1cc(Cl)cc(Cl)c1)c1nc(N)nc(N2CCN(C)CC2)n1 (stereo not drawn)
IC50 (Acetylcholinesterase): 3950 nM

CCC(Oc1cc(Cl)ccc1Cl)c1nc(N)nc(N2CCN(C)CC2)n1 (stereo not drawn)
IC50 (Acetylcholinesterase): 11200 nM
IC50 (HepG2): 7400 nM
IC50 (SH-SY5Y): 81300 nM

CC(Oc1ccc(Cl)c(Cl)c1)c1nc(N)nc(N2CCN(C)CC2)n1 (stereo not drawn)
IC50 (Acetylcholinesterase): 9520 nM

CCCCC(Oc1cccc(Cl)c1Cl)c1nc(N)nc(N2CCN(C)CC2)n1 (stereo not drawn)
IC50 (Cholinesterase): 500 nM
IC50 (HepG2): 13200 nM
IC50 (SH-SY5Y): 29900 nM

CN1CCN(c2nc(N)nc(C(C)(C)Sc3ccccc3Cl)n2)CC1
Ki [1]: 476 nM
Ki [2]: 892 nM
Ki [3]: 5920 nM
Ki (D(2) dopamine receptor): 727 nM

CN1CCN(c2nc(N)nc(C(C)(C)Oc3ccccc3Cl)n2)CC1
Ki [1]: 79 nM
Ki [2]: 573 nM
Ki [3]: 5630 nM
Ki (D(2) dopamine receptor): 797 nM

COc1ccc(NS(=O)(=O)c2ccc(I)cc2)cc1N1CCN(C)CC1
Emax [4]: 100%

CCC(Sc1ccccc1)c1nc(N)nc(N2CCN(C)CC2)n1 (racemic)
Ki [1]: 127 nM
Ki [2]: 427 nM
Ki [3]: 2470 nM
Ki (D(2) dopamine receptor): 7270 nM

CC(Sc1cc(Cl)ccc1Cl)c1nc(N)nc(N2CCN(C)CC2)n1 (racemic)
IC50 (Acetylcholinesterase): 9190 nM
Ki [1]: 169 nM
Ki [3]: 61000 nM
Ki (D(2) dopamine receptor): 4780 nM

CCC(Sc1cccc(Cl)c1Cl)c1nc(N)nc(N2CCNCC2)n1 (racemic)
Ki [2]: 115 nM
Ki [3]: 3320 nM

CC(Sc1ccc(Cl)c(Cl)c1)c1nc(N)nc(N2CCN(C)CC2)n1 (racemic)
Ki [1]: 152 nM
Ki [3]: 2870 nM
Ki (D(2) dopamine receptor): 530 nM

CCC(Sc1ccc(Cl)c(Cl)c1)c1nc(N)nc(N2CCN(C)CC2)n1 (racemic)
IC50 (Acetylcholinesterase): 4570 nM
IC50 (Cholinesterase): 15000 nM
Ki [1]: 181 nM
Ki [2]: 547 nM
Ki [3]: 5160 nM
Ki (D(2) dopamine receptor): 897 nM

CCCC(Sc1cc(Cl)cc(Cl)c1)c1nc(N)nc(N2CCN(C)CC2)n1 (racemic)
Ki [1]: 74 nM
Ki [2]: 500 nM
Ki [3]: 8630 nM
Ki (D(2) dopamine receptor): 663 nM

CCC(Oc1cccc(Cl)c1Cl)c1nc(N)nc(N2CCNCC2)n1 (racemic)
IC50 (Cholinesterase): 10000 nM
Ki [1]: 179 nM
Ki [2]: 118 nM
Ki [3]: 4510 nM

CCC(Sc1cc(Cl)cc(Cl)c1)c1nc(N)nc(N2CCN(C)CC2)n1 (racemic)
IC50 (Cholinesterase): 9800 nM
Ki [1]: 103 nM
Ki [2]: 178 nM
Ki [3]: 6040 nM
Ki (D(2) dopamine receptor): 362 nM

CCCC(Sc1cc(Cl)ccc1Cl)c1nc(N)nc(N2CCN(C)CC2)n1 (racemic)
Ki [1]: 9 nM
Ki [3]: 6210 nM
Ki (D(2) dopamine receptor): 971 nM

CCC(Oc1ccccc1)c1nc(N)nc(N2CCNCC2)n1 (racemic)
IC50 (HepG2): 20 nM
IC50 (SH-SY5Y): 42100 nM
Ki [1]: 414 nM
Ki [2]: 4820 nM
Ki [3]: 8150 nM

CCCCC(Sc1cccc(Cl)c1Cl)c1nc(N)nc(N2CCN(C)CC2)n1 (racemic)
IC50 (Cholinesterase): 9950 nM
Ki [1]: 169 nM
Ki [2]: 179 nM
Ki [3]: 1800 nM

CCC(Oc1cc(Cl)ccc1Cl)c1nc(N)nc(N2CCNCC2)n1 (racemic)
Ki [2]: 62 nM
Ki [3]: 3720 nM

CCC(Sc1cc(Cl)ccc1Cl)c1nc(N)nc(N2CCNCC2)n1 (racemic)
Ki [2]: 188 nM
Ki [3]: 5670 nM

CCC(Sc1cc(Cl)ccc1Cl)c1nc(N)nc(N2CCN(C)CC2)n1 (racemic)
IC50 (Cholinesterase): 12100 nM
Ki [2]: 551 nM
Ki [3]: 5140 nM
Ki (D(2) dopamine receptor): 1000 nM

CCC(Sc1cccc(Cl)c1Cl)c1nc(N)nc(N2CCN(C)CC2)n1 (racemic)
Ki [2]: 2150 nM
Ki [3]: 2560 nM
Ki (D(2) dopamine receptor): 879 nM

CC(Sc1cc(Cl)cc(Cl)c1)c1nc(N)nc(N2CCN(C)CC2)n1 (racemic)
IC50 (Acetylcholinesterase): 5370 nM
Ki [1]: 103 nM
Ki [2]: 178 nM
Ki [3]: 6040 nM
Ki (D(2) dopamine receptor): 362 nM

CC(=O)Oc1ccccc1C(=O)O [ASPIRIN]
IC50 (cells): 17400 nM
